From article PMC9184620, “TAS1553, a small molecule subunit interaction inhibitor of ribonucleotide reductase, exhibits antitumor activity by causing DNA replication stress” (Communications Biology, 2022)
Where two headings read alike, the source gives them in different places. Ends that are not written are not given here.

What was measured:
HCC38 xenograft = test: Antitumor activity in mice bearing HCC38 xenografts; format: in vivo, mouse; conditions: 20 mg/kg intravenously once a week
Experimental: (§1) Next, we evaluated the antitumor activity of a high-dose administration of TAS1553 and cytarabine in rats bearing MV-4-11 xenografts. […] The rats were treated with cytarabine for 5 days at 16 and 32 mg/kg. […] In addition to the hematologic tumor, we evaluated the antitumor activity of TAS1553 in mice implanted with HCC38 cell line as a solid tumor model. […] Finally, TAS1553 was evaluated for its survival benefit in a mouse model. To achieve this, we established mice bone marrow cells harboring the human MLL-AF9 fusion gene, which is known as a driver gene for AML in humans as well as mice[48]. Mice were transplanted with the cells through the tail vein and the treatment with TAS1553 was started 11 days post-implantation.
(§2) For the subcutaneous implantation model of MV-4-11, F344/NJcl-rnu/rnu rats were irradiated with X-ray (4 Gy) to improve the efficiency of xenograft implantation. Two days after X-ray irradiation, MV-4-11 cells suspended in PBS with 50 vol% Matrigel were inoculated into the rats (2 × 10^7 cells/animal). In the mice subcutaneous implantation model, HCC38 cells suspended same as above were inoculated into male BALB/cAJcl-nu/nu mice (1 × 10^7 cells /body). The animals were randomized and administered with the compound for 14 days. Antitumor activity and body weight change were evaluated as previously reported. Dunnett test using the SAS software package in EXSUS (CAC Croit) was used to compare the tumor volume (P < 0.05).

MV-4-11 xenograft = test: Antitumor activity in rats bearing MV-4-11 xenografts; format: in vivo; conditions: 32 mg/kg intravenously for 5 consecutive days
Experimental: as §1, with “mice[48].” for “mice[48]. Mice were transplanted with the cells through the tail vein and the treatment with TAS1553 was started 11 days post-implantation.”
as §2, with “The animals were randomized and administered with the compound for 14 days.” left out

human R1 = target: T1, human R1 (Homo sapiens, UniProt P23921); test: Fluorescence polarization binding assay (displacement of TAMRA-labeled P7 from R1); conditions: for IC50: R1 and TAMRA-labeled P7, mean ± SD, three independent experiments, read-out: IC50, fluorescent polarization binding assay
T1 construct: made in house; host or cells: Escherichia coli
T1 sequence (P23921 1-792): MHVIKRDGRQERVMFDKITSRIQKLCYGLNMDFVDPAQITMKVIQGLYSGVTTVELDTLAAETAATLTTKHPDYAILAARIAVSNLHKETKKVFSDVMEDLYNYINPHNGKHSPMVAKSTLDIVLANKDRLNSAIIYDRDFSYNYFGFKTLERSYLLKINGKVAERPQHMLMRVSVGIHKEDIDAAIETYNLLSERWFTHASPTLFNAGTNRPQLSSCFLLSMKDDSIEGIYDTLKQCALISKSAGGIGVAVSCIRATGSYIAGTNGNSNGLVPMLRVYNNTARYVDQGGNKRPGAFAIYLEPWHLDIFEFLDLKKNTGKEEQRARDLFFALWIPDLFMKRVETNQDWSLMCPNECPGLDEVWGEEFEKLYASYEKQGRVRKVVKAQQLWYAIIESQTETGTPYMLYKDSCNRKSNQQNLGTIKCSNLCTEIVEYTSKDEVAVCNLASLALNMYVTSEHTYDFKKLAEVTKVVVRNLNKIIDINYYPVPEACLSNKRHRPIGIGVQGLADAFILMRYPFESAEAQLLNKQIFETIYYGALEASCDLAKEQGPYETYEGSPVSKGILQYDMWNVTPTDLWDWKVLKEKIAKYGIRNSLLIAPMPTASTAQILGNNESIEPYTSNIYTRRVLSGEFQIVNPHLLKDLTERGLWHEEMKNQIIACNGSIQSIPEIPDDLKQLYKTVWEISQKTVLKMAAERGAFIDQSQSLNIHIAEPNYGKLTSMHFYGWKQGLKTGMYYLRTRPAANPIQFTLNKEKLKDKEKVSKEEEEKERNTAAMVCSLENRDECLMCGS
From the text: Fig. 1 Design and identification of the small molecule compound TAS1553 blocking the interaction between RNR subunits. a A schematic representation of the fluorescent polarization binding assay. TAMRA-labeled P7 heptapeptide was used as a probe. […] Data are presented as mean ± SD obtained from three independent experiments. c Chemical structures of compound 1 and TAS1553. d Superposition of the X-ray co-crystal structure of human RRM1 (green) with compound 1 (magenta) (PDB ID: 6L3R) to the previously determined X-ray co-crystal structure of Saccharomyces cerevisiae RNR1 (cyan) with P7 peptide (yellow) (PDB ID: 2ZLF). The residue numbers and protein surface shown here are those of hRRM1. e SPR analysis for the binding of TAS1553 to human R1 captured onto Series S Sensor Chip NTA. […] IC50 (mean ± SD) is determined from three independent experiments performed in triplicate.
TAMRA-labeled P7 peptide was obtained from Peptide Institute, Inc. to be used as a fluorescent probe in the FP binding assay. The final reaction mixture was composed of 50 mmol/L Tris-Cl (pH 8.0), 10 mmol/L DTT, 10 nmol/L TAMRA-P7, 32 ng/mL His-R1, and 1% DMSO with or without test compound. The assay was performed for 120 min at room temperature with protection from light, after which FP of each sample was measured with a PHERAstarFS. IC50 values were calculated using the SAS software package in EXSUS (CAC Croit).

[1] = target: T2, interaction between R1 and R2 (human RNR) (Homo sapiens, UniProt P23921); test: AlphaLISA binding assay (interaction between His-R1 and GST-R2); conditions: recombinant R1 and R2; mean ± SD
T2 construct: host or cells: Escherichia coli (His-R1)
T2 sequence (P23921 1-792): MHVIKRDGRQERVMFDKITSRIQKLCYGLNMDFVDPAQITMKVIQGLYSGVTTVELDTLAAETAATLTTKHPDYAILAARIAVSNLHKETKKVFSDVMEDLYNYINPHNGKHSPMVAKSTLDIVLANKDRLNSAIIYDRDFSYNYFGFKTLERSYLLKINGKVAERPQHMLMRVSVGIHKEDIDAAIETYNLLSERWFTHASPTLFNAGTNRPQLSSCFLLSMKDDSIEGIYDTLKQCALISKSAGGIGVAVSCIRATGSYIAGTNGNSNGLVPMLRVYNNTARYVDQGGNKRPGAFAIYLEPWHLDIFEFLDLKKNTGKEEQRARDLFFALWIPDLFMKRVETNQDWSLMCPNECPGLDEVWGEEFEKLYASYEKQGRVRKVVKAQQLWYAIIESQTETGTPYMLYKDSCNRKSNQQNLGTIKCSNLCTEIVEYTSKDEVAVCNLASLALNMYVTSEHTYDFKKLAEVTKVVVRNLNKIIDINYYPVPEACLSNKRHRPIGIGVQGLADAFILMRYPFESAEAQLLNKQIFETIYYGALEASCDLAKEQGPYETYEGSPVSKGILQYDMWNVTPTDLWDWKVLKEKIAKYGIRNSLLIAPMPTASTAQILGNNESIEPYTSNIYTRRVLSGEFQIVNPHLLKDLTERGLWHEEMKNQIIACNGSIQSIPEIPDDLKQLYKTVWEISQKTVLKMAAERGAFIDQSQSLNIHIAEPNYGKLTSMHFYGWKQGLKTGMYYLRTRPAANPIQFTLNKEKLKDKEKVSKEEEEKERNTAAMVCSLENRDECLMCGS

[2] = target: T3, RNR (R1 and R2 recombinant proteins) (Homo sapiens, UniProt P23921); test: RNR assay (formation of dCDP from CDP); format: biochemical
T3 construct: made in house; host or cells: Escherichia coli
T3 sequence (P23921 1-792): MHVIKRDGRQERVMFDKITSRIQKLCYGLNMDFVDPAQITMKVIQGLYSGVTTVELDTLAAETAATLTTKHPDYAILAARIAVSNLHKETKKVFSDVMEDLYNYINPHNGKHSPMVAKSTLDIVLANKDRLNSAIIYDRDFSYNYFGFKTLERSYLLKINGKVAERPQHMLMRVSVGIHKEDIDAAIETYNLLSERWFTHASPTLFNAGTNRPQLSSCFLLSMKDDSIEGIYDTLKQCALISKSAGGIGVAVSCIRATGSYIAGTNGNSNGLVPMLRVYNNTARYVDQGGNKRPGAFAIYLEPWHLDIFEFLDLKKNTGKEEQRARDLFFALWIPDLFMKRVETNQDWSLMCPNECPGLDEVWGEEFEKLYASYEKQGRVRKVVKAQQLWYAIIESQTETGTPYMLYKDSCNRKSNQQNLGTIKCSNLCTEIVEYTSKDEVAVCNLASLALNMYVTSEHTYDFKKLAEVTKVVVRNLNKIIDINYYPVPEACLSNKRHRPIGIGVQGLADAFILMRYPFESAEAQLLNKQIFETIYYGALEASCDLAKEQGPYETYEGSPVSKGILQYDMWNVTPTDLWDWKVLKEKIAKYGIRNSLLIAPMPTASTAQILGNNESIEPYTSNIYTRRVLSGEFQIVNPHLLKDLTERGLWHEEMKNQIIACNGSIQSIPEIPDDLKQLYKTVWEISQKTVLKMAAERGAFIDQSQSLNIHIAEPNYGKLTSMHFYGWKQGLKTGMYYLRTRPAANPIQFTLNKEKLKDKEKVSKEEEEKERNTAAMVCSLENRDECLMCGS
Experimental: The binding affinity of TAS1553 to the R1 subunit was investigated using surface plasmon resonance (SPR) binding analysis. […] Next, we evaluated the inhibitory effect of TAS1553 against the enzymatic activity of RNR, consisting of R1 and R2 recombinant proteins. RNR activity was determined by its ability to reduce cytidine diphosphate (CDP) to deoxycytidine diphosphate (dCDP), based on a previous report. […] In addition to the inhibitory effect on RNR, TAS1553 was evaluated in a Eurofins LeadProfilingScreen panel assay including 68 proteins, such as ion channels, transporters, nuclear receptors, and G protein-coupled receptors, to examine its potential adverse activity.
The inhibition of RNR activity by the test compound was evaluated by measuring the formation of dCDP from CDP, as reported previously. The assay was performed for 30 min at 37 °C in a reaction mixture composed of 50 mmol/L HEPES, 4 mmol/L magnesium acetate, 100 mmol/L KCl, 6 mmol/L DTT, 2 mmol/L ATP, 0.24 mmol/L NADPH, 10.0 µmol/L CDP, 0.1 mg/mL BSA, 8.0 µg/mL His-R1, 2.4 µg/mL His-R2, and 1% DMSO with or without test compound. The reaction was discontinued by heat treatment at 95 °C for 5 min. The amount of dCDP after the reaction was quantified by a prominence HPLC system and LabSolutions software (SHIMADZU CORPORATION). Separations were performed at 265 nm in a Shim-pack XR-ODS column of particle size 2.2 μm (100 × 3.0 mm, SHIMADZU GLC Ltd.). Overall, 5 µL of each sample was injected, and chromatography was performed at 40 °C. Mobile A was composed of 10 mmol/L potassium dihydrogenphosphate, 10 mmol/L tetrabutylammonium hydroxide, 0.25% methanol and 8 mmol/L HCl. Mobile B was composed of 50 mmol/L potassium dihydrogenphosphate, 5.6 mmol/L tetrabutylammonium hydroxide, and 30% methanol. The gradient was as follows: 52–60% B for 9 min, 60–99% B for 1 min, 99% B for 5 min, 99–52% B for 1 min, and 52% B for 5 min. The flow rate was 0.5 mL/min. The experiment was performed in triplicates. IC50 values were calculated using the SAS software package.

CC(=O)O[C@H]1C(=O)[C@@]2(C)[C@H]([C@H](OC(=O)c3ccccc3)[C@]3(O)C[C@H](OC(=O)[C@H](O)[C@@H](NC(=O)c4ccccc4)c4ccccc4)C(C)=C1C3(C)C)[C@]1(OC(C)=O)CO[C@@H]1C[C@@H]2O [paclitaxel]
T/C ratio (HCC38 xenograft): 63.6%

Nc1ccn([C@@H]2O[C@H](CO)[C@@H](O)[C@@H]2O)c(=O)n1 [cytarabine, reference compound]
T/C ratio (MV-4-11 xenograft): 77.4%

C[C@H](c1cccc2ccccc12)[C@H](NS(=O)(=O)c1ccc(Br)cc1)c1n[nH]c(=O)o1 [compound 1, 4-bromo-N-[(1S,2R)-2-(naphthalen-1-yl)-1-(5-oxo-4,5-dihydro-1,3,4-oxadiazol-2-yl)propyl]benzenesulfonamide]
potency relative to Fmoc-L-phenylalanine (binding inhibition) (human R1; FP binding IC50 ratio): ~ 2000 fold
IC50 (human R1): 0.527 ± 0.021 µM

O=C(N[C@@H](Cc1ccccc1)C(=O)O)OCC1c2ccccc2-c2ccccc21 [Fmoc-L-phenylalanine, reference compound]
IC50 (human R1): 934 ± 35 µM

NC(=O)NO [HU, Hydroxyurea, reference compound]
IC50 [1]: > 1 mM
IC50 ([2]; CDP to dCDP, mean ± SD, read-out: Enzyme IC50): 188 ± 32 µM

Ac-FTLDADF [P7, N-AcFTLDADF]
IC50 [2]: 14.5 ± 1 µM
